Reference: US6121252A, “Phosphinic acid derivatives” (priority 1998, dated 2000)

Experiments:
[1] = tested on: mice; test: In vivo toxicity of NAALADase inhibitors (5-day survival); conditions: 1 to 500 mg/kg
Text: The mice were subsequently observed two times per day for 5 consecutive days. The survival rate at each dose level is provided below in TABLE II.

[2] = tested on: cortical cell cultures; test: In vitro ischemia assay (KCN/2-DG) in cortical cell cultures; format: cell-based, rat
[3] = tested on: dopaminergic neurons; test: Parkinson's Disease model: MPTP lesioned mice; format: in vivo, CD1 mice; conditions: 10 mg/kg, p<0.001
Description: To examine the effect of NAALADase inhibitors on Parkinson's Disease in vivo, MPTP lesioned mice were treated with 2-(phosphonomethyl)pentanedioicacid or a vehicle.
MPTP lesioning of dopaminergic neurons in mice was used as an animal model of Parkinson's Disease, as described by Steiner, Proc. Natl. Acad. Sci., Vol. 94, pp. 2019-2024 (March 1997). In brief, four week old male CD1 white mice were dosed IP with 30 mg/kg of MPTP for 5 days. […] At 18 days following MPTP treatment, the mice were sacrificed and their brains were removed and sectioned. Immunostaining was performed on saggital and coronal brain sections using anti-tyrosine hydroxylase (TH) antibodies to quantitate survival and recovery of dopaminergic neurons.

[4] = tested on: spinal cord organotypic cultures; test: ALS model: ChAT activity of spinal cord organotypic cultures with THA; format: cell-based, rat
Description: Organotypic cultures were prepared from lumbar spinal cord of 8 day old rats, as described by Rothstein et al., J. Neurochem., Vol. 65, No. 2 (1995), and Rothstein et al., Proc. Natl. Acad. Sci. USA, Vol. 90, pp. 6591-6595 (July 1993). In brief, lumbar spinal cords were removed and sliced into […]-thick-dorsal-ventral sections, and five slices were placed on Millipore CM semipermeable 30-mm-diameter membrane inserts. The inserts were placed on 1 ml of culture medium in 35-mm-diameter culture wells. Culture medium consisted of 50% minimal essential medium and phosphate-free HEPES (25 mM), 25% heat-inactivated horse serum, and 25 Hanks' balanced salt solution (GIBCO) supplemented with D-glucose (25.6 mg/ml) and glutamine (2 mM), at a final pH of 7.2. Antibiotic and antifungal agents were not used. Cultures were incubated at 37° C. in 5% CO2 containing humidified environment (Forma Scientific). Culture medium, along with any added pharmacological agents, was changed twice weekly.
Drugs were incubated for an additional 13 to 20 days with the 100 μM THA. At the end of this period, cultures were collected assayed for ChAT activity as described below.
To determine choline acetyltransferase (CHAT) activity, the spinal cord tissues in each dish (five slices) were pooled and frozen (-75° C.) until assay. CHAT activity was measured radiometrically by described methods using [^3 H]acetyl-CoA (Amersham; Fonnum, 1975). Protein content of tissue homogenate was determined by a Coomassi Protein Assay kit (Pierce, Rockford, Ill.).

[5] = tested on: male Long-Evans rats; test: Nicotine self-administration in male Long-Evans rats; format: in vivo, rat; conditions: 200 mg/kg
Description: Male Long-Evans rats were trained to self-administer nicotine on a fixed ratio schedule of reinforcement, as described by Corrigall et al., Psychopharmacology, Vol. 104, No. 2, pp. 171-176 (1991) and Corrigall et al., Psychopharmacology, Vol. 107, Nos. 2-3, pp. 285-289 (1992). In brief, male Long-Evans rats were food deprived for a short period of time (24-48 hours) and trained to press a lever in an operant responding chamber on an FR-1 schedule of food reinforcement. Once trained, each rat was surgically prepared with a chronic intravenous catheter implanted into the jugular vein. The rats were allowed 1 week to recover from surgery.
After 1 week, nicotine self-administration studies were initiated on an FR-1 with a 60 second signaled time-out following each infusion. During time-out, responding on the lever had no scheduled consequence. Nicotine self-administration sessions were 60 minutes in duration. Each nicotine infusion contained 30 μg of nicotine/kg rat and were delivered in a volume of 54 μl over an infusion duration of 0.3 seconds. […] Food intake was monitored during the nicotine self-administration sessions to assess non-specific drug effects.

[6] = tested on: LNCaP tumors; test: In vivo LNCaP tumor model, subcutaneous Compound 3; parameters: species or system ncr nude male mice
Description: Ncr nude male mice, age 5 to 6 weeks, were injected in the right flank with 5×10^6 LNCaP cells in Matrigel™ (0.1 ml total injection volume). […] Controls received 50 mM HEPES s.c. daily. Once tumors were palpable they were measured twice a week.
(§1) Response to treatment was monitored in two ways. First, mean tumor volume for each group was presented as tumor:control ratio (% T/C) and these values were compared at one point in time. Second, tumor volume versus time was monitored.

[7] = tested on: Dunning G tumors; test: In vivo Dunning G tumor model, subcutaneous Compound 3; parameters: species or system male Copenhagen syngenic rats
Description: Male Copenhagen syngenic rats, age 8 to 10 weeks, were injected in both flanks with 10^7 Dunning G cells. […] Controls received 50 mM HEPES s.c. daily. Tumors were measured twice a week.
as §1

[8] = tested on: LNCaP tumors; test: In vivo LNCaP tumor model, intratumoral Compound 3; parameters: species or system ncr nude male mice
Description: Ncr nude male mice, age 5 to 6 weeks, were injected in the right flank with 10^7 LNCaP cells in Matrigel™ (0.1 ml total injection volume). When the tumors reached a predetermined size (50 to 60 mm^3), mice were randomly placed into treatment groups of 6 to 8 mice each. […] Controls received 50 μl of 50 mM HEPES intratumorally daily. Tumors were measured twice a week.
as §1

[9] = Rattus norvegicus, read-out: % Toxicity

O=C(O)CCC(CP(=O)(O)O)C(=O)O (centres unmarked) [Compound 3, 2-(phosphonomethyl)pentanedioic acid]
toxicological effect (in words) [1]: non-toxic to mice | ischemic toxicity (in words) ([2]; 100 pM to 1 μM): toxicity decreased as the concentration of 2-(phosphonomethyl)pentanedioic acid increased | activity at 0.0001 µM [2, 9]: 66.6 ± 4.38% | activity at 0.001 µM [2, 9]: 42.3 ± 9.34% | activity at 0.01 µM [2, 9]: 33.1 ± 9.62% | activity at 0.1 µM [2, 9]: 30.2 ± 9.43% | activity at 1 µM [2, 9]: 8.56 ± 8.22% | recovery of TH-stained dopaminergic neurons (in words) [3]: significant recovery of TH-stained dopaminergic neurons | protection against THA-induced toxicity (in words) ([4]; 1 nM to 10 μM, THA 100 μM, 14 days): dose-dependent protection against THA-induced toxicity with maximal effects at 1 μM | protection from THA toxicity (in words) ([4]; 100 nM - 10 μM with THA): significantly protected the cultures from THA toxicity | ChAT Activity ([4]; 2-(phosphonomethyl)pentanedioic acid alone): 108 ± 18.4 % of Control | ChAT Activity ([4]; with THA): 121 ± 18.8 % of Control | cumulative food intake (in words) ([5]; 1 hour): decreased | nicotine self-administration ([5]; 1 hour access period, reduced from 23): 5 infusions | effect on tumor growth (in words) ([6]; 1 mg/kg s.c.): no effect on tumor growth | effect on tumor growth (in words) ([6]; 3 mg/kg s.c.): no effect on tumor growth | tumor growth, % of controls ([6]; 10 mg/kg s.c., day 86, p=0.006): 24 % of controls | effect on tumor growth (in words) ([6]; 30 mg/kg s.c.): no effect on tumor growth | effect on tumor growth (in words) ([7]; 1 mg/kg s.c.): no effect on tumor growth | effect on tumor growth (in words) ([7]; 3 mg/kg s.c.): no effect on tumor growth | tumor size, % of controls ([7]; 10 mg/kg s.c., p=0.03): 38 % of controls | tumor size, % of controls ([7]; 30 mg/kg s.c.): 22 % of controls | Optimal % T/C ([8]; 0.025 μg/day intratumoral): 42 % T/C | Regressions ([8]; 0.025 μg/day intratumoral): 1/7 | Tumor volume after 42 days of treatment ([8]; 0.025 μg/day, control 807.3±197.3): 465.7±176 mm^3 | Optimal % T/C ([8]; 0.25 μg/day intratumoral): 51 % T/C | Regressions ([8]; 0.25 μg/day intratumoral): 1/7 | Optimal % T/C ([8]; 2.5 μg/day intratumoral): 45 % T/C | Regressions ([8]; 2.5 μg/day intratumoral): 0/7 | Optimal % T/C ([8]; 25.0 μg/day intratumoral): 76 % T/C | Regressions ([8]; 25.0 μg/day intratumoral): 0/7 | tumor growth (in words) ([8]; 0.025, 0.25 and 2.5 μg/day intratumoral): slowed tumor growth substantially
